Reference: US20260062443A1 (ALEXION PHARMACEUTICALS, INC., priority 2022, published 2026)

Target: T1, Human complement C1s enzyme (Homo sapiens, UniProt P09871)
T1 sequence (P09871 438-688 limits assumed): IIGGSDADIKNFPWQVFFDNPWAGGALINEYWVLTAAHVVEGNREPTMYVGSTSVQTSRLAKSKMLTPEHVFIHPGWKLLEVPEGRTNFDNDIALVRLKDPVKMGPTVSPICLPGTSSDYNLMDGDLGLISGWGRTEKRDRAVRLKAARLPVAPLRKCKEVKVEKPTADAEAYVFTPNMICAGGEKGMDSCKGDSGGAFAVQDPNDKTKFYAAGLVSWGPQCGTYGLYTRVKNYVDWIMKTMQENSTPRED
T1 sequence (P09871 16-437 partner limits assumed): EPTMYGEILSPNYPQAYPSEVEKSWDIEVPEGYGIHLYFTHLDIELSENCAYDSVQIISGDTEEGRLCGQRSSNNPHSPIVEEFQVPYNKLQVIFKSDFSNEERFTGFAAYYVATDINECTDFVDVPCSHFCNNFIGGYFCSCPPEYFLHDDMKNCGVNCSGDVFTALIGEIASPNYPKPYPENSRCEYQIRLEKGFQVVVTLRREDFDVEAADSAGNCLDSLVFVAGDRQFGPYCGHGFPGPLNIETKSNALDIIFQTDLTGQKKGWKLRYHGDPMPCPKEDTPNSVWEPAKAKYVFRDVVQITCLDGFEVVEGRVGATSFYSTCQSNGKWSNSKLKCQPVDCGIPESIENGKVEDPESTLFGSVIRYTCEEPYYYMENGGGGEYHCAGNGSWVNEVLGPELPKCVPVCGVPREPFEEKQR
Assay: Human C1s enzyme assay
Format: biochemical
Settings: human complement C1s enzyme 1.16 nM, substrate Z-L-Lys-SBzl 100 μM, 5 min preincubation; read-out: IC50 (Stars), C1s Inhibiting Activity
Experimental: Other standard complement assays are also available.
Human complement C1s enzyme (purified from human serum, Complement Technology, Inc.) at 1.16 nM final concentration was incubated with test compound at various concentrations for 5 min at room temperature in 50 mM Tris, 1 M NaCl, pH 7.5. A synthetic substrate Z-L-Lys-SBzl and DTNB (Ellman's reagent) were added to final concentrations of 100 μM each. Absorbance at 405 nm (A405) was recorded at 30 second intervals for 30 min using a microplate spectrophotometer. IC50 values were calculated by nonlinear regression of complement C1 s reaction rates as a function of test compound concentration.
ND indicates a compound for which the IC50 value is not determined.

IC50, > 1000 nM:
O=C(NCC(=O)N1C[C@H](OC(F)F)C[C@H]1C(=O)NCc1cnc2c(c1)NCC2)c1ccc2c(c1)Oc1ccccc1S2 [Compound 257, (2S,4R)-4-(difluoromethoxy)-N-((2,3-dihydro-1H-pyrrolo[3,2-b]pyridin-6-yl)methyl)-1-((phenoxathiine-3-carbonyl)glycyl)pyrrolidine-2-carboxamide]
O=C(NCC(=O)N1C[C@H](OC(F)F)C[C@H]1C(=O)NCc1ccc2ncoc2c1)c1ccc2c(c1)Oc1ccccc1S2 [Compound 221, (2S,4R)-N-(benzo[d]oxazol-6-ylmethyl)-4-(difluoromethoxy)-1-((phenoxathiine-3-carbonyl)glycyl)pyrrolidine-2-carboxamide]
O=C(NCC(=O)N1CC2(C[C@H]1C(=O)NCc1cc3ccccc3[nH]1)OCCO2)c1ccc(Oc2ccccc2)cc1 [Compound 11, (S)-N-((1H-indol-2-yl)methyl)-7-((4-phenoxybenzoyl)glycyl)-1,4-dioxa-7-azaspiro[4.4]nonane-8-carboxamide]
C[C@@]12C[C@@H]1N(C(=O)CNC(=O)c1ccc(Oc3ccccc3)cc1)[C@H](C(=O)NCc1cccc(Cl)c1Cl)C2 [Compound 13, (1S,3S,5S)-N-(2,3-dichlorobenzyl)-5-methyl-2-((4-phenoxybenzoyl)glycyl)-2-azabicyclo[3.1.0]hexane-3-carboxamide]

IC50, < 100 nM:
C[C@@H](NC(=O)[C@@H]1CC2(CN1C(=O)CN1Cc3ccc(-c4ccc(F)cc4F)cc3C1=O)OCCO2)c1cc2cnccc2[nH]1 [Compound 126, (S)-N-((R)-1-(1H-pyrrolo[3,2-c]pyridin-2-yl)ethyl)-7-(2-(6-(2,4-difluorophenyl)-1-oxoisoindolin-2-yl)acetyl)-1,4-dioxa-7-azaspiro[4.4]nonane-8-carboxamide]
C[C@@]12C[C@@H]1N(C(=O)CNC(=O)c1ccc3c(c1)Oc1ccccc1S3)[C@H](C(=O)NCc1cc3cnccn3c1)C2 [Compound 271, (1S,3S,5S)-5-methyl-2-((phenoxathiine-3-carbonyl)glycyl)-N-(pyrrolo[1,2-a]pyrazin-7-ylmethyl)-2-azabicyclo[3.1.0]hexane-3-carboxamide]
O=C(NCC(=O)N1C[C@H](OC(F)F)C[C@H]1C(=O)NCc1cc2cnccc2[nH]1)c1cccc(Oc2ccc(C3CC3)cc2)c1 [Compound 294, (2S,4R)-N-((1H-pyrrolo[3,2-c]pyridin-2-yl)methyl)-1-((3-(4-cyclopropylphenoxy)benzoyl)glycyl)-4-(difluoromethoxy)pyrrolidine-2-carboxamide]
CC(C)(C)c1ccc(Oc2cccc(C(=O)NCC(=O)N3C[C@H](OC(F)F)C[C@H]3C(=O)NCc3cc4cnccc4[nH]3)c2)cc1 [Compound 273, (2S,4R)-N-((1H-pyrrolo[3,2-c]pyridin-2-yl)methyl)-1-((3-(4-(tert-butyl)phenoxy)benzoyl)glycyl)-4-(difluoromethoxy)pyrrolidine-4-carboxamide]
Cc1ccc(-c2ccc3c(c2)CN(CC(=O)N2C[C@H](OC(F)F)C[C@H]2C(=O)N[C@H](C)c2cc4cnccc4[nH]2)C3=O)cc1 [Compound 105, (2S,4R)-N-((R)-1-(1H-pyrrolo[3,2-c]pyridin-2-yl)ethyl)-4-(difluoromethoxy)-1-(2-(1-oxo-5-(p-tolyl)isoindolin-2-yl)acetyl)pyrrolidine-2-carboxamide]
O=C(NCC(=O)N1CC2(C[C@H]1C(=O)NCc1cc3cnccc3[nH]1)OCCO2)c1ccc2c(c1)-c1ccccc1C2(F)F [Compound 2, (S)-N-((1H-pyrrolo[3,2-c]pyridin-2-yl)methyl)-7-((9,9-difluoro-9H-fluorene-3-carbonyl)glycyl)-1,4-dioxa-7-azaspiro[4.4]nonane-8-carboxamide]
C[C@@]12C[C@@H]1N(C(=O)CNC(=O)c1cccc(Oc3ccccc3)c1)[C@H](C(=O)NCc1cc3cnccn3c1)C2 [Compound 277, (1S,3S,5S)-5-methyl-2-((3-phenoxybenzoyl)glycyl)-N-(pyrrolo[1,2-a]pyrazin-7-ylmethyl)-2-azabicyclo[3.1.0]hexane-3-carboxamide]
C[C@@H](NC(=O)[C@@H]1C[C@](F)(CO)CN1C(=O)CNC(=O)c1ccc2c(c1)Oc1ccccc1S2)c1cc2cnccc2[nH]1 [Compound 148, (2S,4R)-N-((R)-1-(1H-pyrrolo[3,2-c]pyridin-2-yl)ethyl)-4-fluoro-4-(hydroxymethyl)-1-((phenoxathiine-3-carbonyl)glycyl)pyrrolidine-2-carboxamide]
C[C@@H](NC(=O)[C@@H]1C[C@]2(C)C[C@@H]2N1C(=O)CNC(=O)c1ccc2c(c1)Oc1ccccc1S2)c1cc2cnccc2s1 [Compound 231, (1S,3S,5S)-5-methyl-2-((phenoxathiine-3-carbonyl)glycyl)-N-((R)-1-(thieno[3,2-c]pyridin-2-yl)ethyl)-2-azabicyclo[3.1.0]hexane-3-carboxamide]
COC[C@@]1(F)C[C@@H](C(=O)N[C@H](C)c2cc3cnccc3[nH]2)N(C(=O)CNC(=O)c2ccc3c(c2)Oc2ccccc2S3)C1 [Compound 173, (2S,4R)-N-((R)-1-(1H-pyrrolo[3,2-c]pyridin-2-yl)ethyl)-4-fluoro-4-(methoxymethyl)-1-((phenoxathiine-3-carbonyl)glycyl)pyrrolidine-2-carboxamide]
O=C(NCC(=O)N1CC2(C[C@H]1C(=O)NCc1cc3cnccc3[nH]1)OCCO2)c1ccc(C(=O)c2ccccc2)cc1 [Compound 33, (S)-N-((1H-pyrrolo[3,2-c]pyridin-2-yl)methyl)-7-((4-benzoylbenzoyl)glycyl)-1,4-dioxa-7-azaspiro[4.4]nonane-8-carboxamide]
O=C(NCC(=O)N1C[C@H](OC(F)F)C[C@H]1C(=O)NCc1cc2cnccc2[nH]1)c1ccc2oc3ccccc3c2c1 [Compound 218, (2S,4R)-N-((1H-pyrrolo[3,2-c]pyridin-2-yl)methyl)-1-((dibenzo[b,d]furan-2-carbonyl)glycyl)-4-(difluoromethoxy)pyrrolidine-2-carboxamide]

IC50, 100 to 1000 nM:
O=C(Cc1ccc(Cl)c(Cl)c1)NCC(=O)N1CC2(C[C@H]1C(=O)NCc1cc3cnccc3[nH]1)OCCO2 [Compound 280, (S)-N-((1H-pyrrolo[3,2-c]pyridin-2-yl)methyl)-7-((2-(3,4-dichlorophenyl)acetyl)glycyl)-1,4-dioxa-7-azaspiro[4.4]nonane-8-carboxamide]
C[C@@]12C[C@@H]1N(C(=O)CN1Cc3ccc(Oc4ccccc4)cc3C1=O)[C@H](C(=O)NCc1cc3cnccc3[nH]1)C2 [Compound 156, (1S,3S,5S)-N-((1H-pyrrolo[3,2-c]pyridin-2-yl)methyl)-5-methyl-2-(2-(1-oxo-6-phenoxyisoindolin-2-yl)acetyl)-2-azabicyclo[3.1.0]hexane-3-carboxamide]
C[C@@H](NC(=O)[C@@H]1C[C@]2(C)C[C@@H]2N1C(=O)CNC(=O)c1ccc(-c2ccc(F)cc2F)cc1)c1cc2cnccc2[nH]1 [Compound 147, (1S,3S,5S)-N-((R)-1-(1H-pyrrolo[3,2-c]pyridin-2-yl)ethyl)-2-((2′,4′-difluoro-[1,1′-biphenyl]-4-carbonyl)glycyl)-5-methyl-2-azabicyclo[3.1.0]hexane-3-carboxamide]
